Experimental data as given in patent EP4559466A1, “MICROBIOTA SIGNATURE TO DETECT FOOD ADDICTION AND TREATMENT THEREOF” (Universitat Pompeu Fabra (UPF), priority 2023, dated 2025).

Key:
C57BI/6J mice = assay: Mouse food addiction operant protocol with prebiotics in drinking water; assay type: in vivo; settings: for mice that achieved the addiction criteria (2-3 criteria, considered addicted): 1% in drinking water during whole protocol, 120 sessions, late period (95-112 sessions), n=12 per group, 41.67% of control mice addicted, χ^2=8.57 control vs lactulose, χ^2=12 control vs rhamnose, P<0.01; for persistence of response: compared to control group
Description: Mice were trained to obtain chocolate-flavored pellets (n=59) in operant boxes during 98 sessions in 1 h-daily self-administration sessions. The operant boxes and daily self-administration protocol of food addiction were accurately described in previous publications (Martín-García E, Domingo-Rodriguez L, Maldonado R. An Operant Conditioning Model Combined with a Chemogenetic Approach to Study the Neurobiology of Food Addiction in Mice. Bio-Protocol 2020;10:1-23. doi:10.21769/bioprotoc.3777; Domingo-Rodriguez L, Ruiz de Azua I, Dominguez E, et al. A specific prelimbic-nucleus accumbens pathway controls resilience versus vulnerability to food addiction. Nat Commun 2020;11:1-16. doi:10.1038/s41467-020-14458-y). Mice were under fixed-ratio 1 (FR1) during six sessions, followed by 92 sessions under FR5. The food addiction-like behavior was evaluated during this operant conditioning maintained by food at a late period (82-92 sessions) to classify mice into the addictive phenotype considering three food addiction-like criteria (1) persistence of response, (2) motivation, and (3) compulsivity. These criteria summarized the main features of the human food addiction diagnosis through the Yale Food Addiction Scale (YFAS 2.0) based on the 5th edition of the diagnostic and statistical manual of mental disorders (DSM-5) for substance use disorders. The three behavioral tests performed to evaluate these three addiction-like criteria (responding during the pellet-free period for the persistence of response, progressive ratio schedule for motivation, and shock-associated unconditioned stimulus for compulsivity) were performed as previously described (Mancino S, Burokas A, Gutiérrez-Cuesta J, et al. Epigenetic and Proteomic Expression Changes Promoted by Eating Addictive-Like Behavior. Neuropsychopharmacology 2015;40:2788-800. doi:10.1038/npp.2015.129). At the end of the late period, animals were categorized into two subpopulations, food-addicted or nonaddicted, depending on the number of addiction-like criteria achieved. Mice with two or three addiction-like criteria were considered addicted, and mice with 0 or 1 addiction-like criteria were considered nonaddicted.
Additionally, four additional phenotypic traits were also evaluated as factors of vulnerability, impulsivity, cognitive inflexibility, appetitive and aversive cue-reactivity. • Impulsivity, the inability to stop a response once it is initiated, was measured as the number of non-reinforced active responses during the time-out period (10 s) after each pellet delivery. This impulsivity-like behavior was delimited to the three consecutive days before the progressive ratio. • Cognitive inflexibility is the incapacity to shift responding to stimuli that have previously predicted the availability of reward. […] In the next 30 min, the cue light associated with pellet delivery during a typical operant training session was illuminated with no contingent pellet reinforcement. To signal the change in the schedule, the cue light was presented twice non-contingently and for 4 s. • Aversive cue-reactivity: To study the conditioning to an aversive stimulus (grid floor), non-reinforced active responses during the following session after the shock test were measured. Mice were placed in the operant box for one hour with the same grid floor used during the shock test. However, during this session, pressing the active lever had no consequences: no shock, no chocolate-flavored pellets, and no cue light.
Mice (n=36) were trained in the same experimental conditions previously described to obtain chocolate flavored pellets during 120 sessions of a 1h-daily self-administration protocol. The duration of training was enhanced in this experiment in order to allow a longer exposure to the prebiotics that could facilitate their effects to modify the behavioral responses. Mice were trained for six days at FR1, followed by 114 FR5 sessions. […]

Blautia [1] = assay: Quantitative PCR of Blautia in mouse feces after prebiotic treatment; assay type: in vivo; settings: 1% in drinking water, feces collected at end of protocol, qPCR, vs control
Description: At the end of the protocol, feces were collected to quantify Blautia abundance in the gut by quantitative PCR. DNA was extracted from 0.18-0.2g of feces using QIAamp® Fast DNA Stool Mini kit (Qiagen, Germany) and was stored at -20°C.
To quantify the Blautia in the feces, primers g-Blau-R (5'-[…]-3') SEQ ID No 3 and g-Blau-F (5'- […]- 3'), targeting SEQ ID No 4 16S rRNA gene, were used, as previously described. Each reaction mixture (10 µl) comprises LightCycler 480 SYBR Green I Master (Roche Life Science, Germany) and 1ng/µl of genomic DNA. The amplification program consisted of one cycle at 95°C for 10 min, followed by 40 cycles at 94°C for 20 s, 55°C for 20 s, and 60°C for 40 s. The fluorescent products were detected in the last step of each cycle. qPCR amplification and detection were performed in 384-well optical plates with an QuantStudio 12K Flex Real-Time PCR System (Applied Biosystems). A melting curve analysis was performed at the end of the experiment to determine the specificity of an assay. The melting program consisted of the first step of 95°C for 15 s, the second step of 60°C for 1 min, and the last dissociation step of 95°C for 15 s. […]
A qPCR was performed to confirm the effectiveness of targeted prebiotics in increasing Blautia genus abundance in the gut. Based on the generated standard curve, the amount of Blautia per gram of feces was determined. […]

Blautia [2] = settings: Reichardt et al. 2018 (rhamnose); Cui et al. 2021 (lactulose); cited from earlier work
[3] = 1% in drinking water, late period

Structure (SMILES): C[C@@H]1OC(O)[C@H](O)[C@H](O)[C@H]1O (stereo partly drawn) [rhamnose, (3R,4R,5R,6S)-6-methyloxane-2,3,4,5-tetrol]
- mice that achieved the addiction criteria (2-3 criteria, considered addicted) (C57BI/6J mice): none
- cognitive inflexibility (C57BI/6J mice; 1% in drinking water, late period, compared to control (U=35.50, P<0.05) and lactulose (U=17.00, P<0.001)): lower
- persistence of response (C57BI/6J mice; [3]): similar
- compulsivity in seeking for palatable food (C57BI/6J mice; 1% in drinking water, late period, compared to control mice, Mann-Whitney's U=31.50, P<0.01): decreased
- motivation for chocolate-flavored pellets (C57BI/6J mice; 1% in drinking water, late period, rhamnose compared to lactulose, Mann-Whitney's U=31.50, P<0.05): reduced
- Blautia abundance in the gut (amount of Blautia per gram of feces) (Blautia [1]): significantly increased
- amount of Blautia in mice feaces (Blautia [2]): increases

Structure (SMILES): OC[C@H]1O[C@@H](O[C@@H]2[C@@H](CO)OC(O)(CO)[C@H]2O)[C@H](O)[C@@H](O)[C@H]1O (stereo partly drawn) [lactulose, 4-O-β-D-galactopyranosyl-D-fructofuranose, reference compound]
- mice that achieved the addiction criteria (2-3 criteria, considered addicted) (C57BI/6J mice): none
- persistence of response (C57BI/6J mice; [3]): similar
- Blautia abundance in the gut (amount of Blautia per gram of feces) (Blautia [1]): non-significant trend to enhance
- amount of Blautia in mice feaces (Blautia [2]): increases
